Test results: paper PMC12333940, “A prometabolite strategy inhibits cardiometabolic disease in an ApoE^–/– murine model of atherosclerosis” (JCI Insight, 2025)
Where “and” joins values, the source holds several entries; their conditions need not be identical. Equal entries are not always repeated.

Columns and labels:
Type in all cases: in vivo, mouse
[1] = tested on: ApoE^–/– mice on an HFD; experiment: Inflammatory cytokines in plasma (LEGENDPlex); set-up: Plasma LegendPlex IFNy / Plasma LegendPlex IL-1B / Plasma LegendPlex IL-6: unit not given here; settings: for plasma IL-1β / IL-6 and IFN-γ in plasma: 6 weeks; for IL-6 and IFN-γ in plasma: compared with control groups; for Plasma LegendPlex IFNy / Plasma LegendPlex IL-1B / Plasma LegendPlex IL-6: individual mice
Experimental: (§1) SerBut water was pH adjusted using 10 M NaOH to a final pH of 7.4. […] After 6 weeks, mice were euthanized. […] The liver was harvested and part was homogenized in tissue protein extraction reagent buffer (Invitrogen, 78510) supplemented with protease inhibitor mini tablets (Thermo Fisher Scientific, PIA32955) for Western blotting and qPCR. […] Blood chemical analysis was performed on an Alfa […] Chemistry Analyzer. Reagent kits from Alfa Wasserman were used according to manufacturer's instructions to analyze plasma: lipase (catalog SA1045), HDL-C (catalog SA2038, LDL-C (catalog SA1040), AST (catalog SA1053), ALT (catalog SA1052). A LEGENDPlex was utilized to analyze the concentrations of inflammatory cytokines (BioLegend).

[2] = tested on: ApoE^–/– mice on an HFD; experiment: qPCR of liver lipid metabolism genes; set-up: srebf1 / srebf2 / fasn / acly / scd1 / acaca / cpt1a: scale not given here; settings: for acaca / acly / cpt1a / fasn / scd1 / srebf1 / srebf2: qPCR, individual mice
Experimental: We then asked whether SerBut’s effects on disease pathology and inflammation may be partially mediated by changes in lipid metabolism by measuring lipogenic and lipid oxidation gene expression by qPCR after treatment for 6 weeks (Supplemental Figure 10, F–L).
(§2) For 6 weeks, mice were freely administered water, water containing 150 mM SerBut, or water containing an equimolar amount of NaBut. SerBut water was pH adjusted using 10 M NaOH to a final pH of 7.4. […] In concert, mice were fed an HFD with 42% from fat and 0.2% total cholesterol (Envigo, TD-88137) ad libitum. After 6 weeks, mice were euthanized. The lMLNs, ILNs, spleen, heart, and aorta were harvested and processed for flow cytometry analysis ([67]). The liver was harvested and part was homogenized in tissue protein extraction reagent buffer (Invitrogen, 78510) supplemented with protease inhibitor mini tablets (Thermo Fisher Scientific, PIA32955) for Western blotting and qPCR. The remaining liver was fixed with 4% paraformaldehyde and embedded in paraffin for histological analysis.

[3] = tested on: ApoE^–/– mice on an HFD; experiment: Blood chemical analysis of plasma; set-up: Lipase / ALT / Altherogenic Lipids (Chol-HDL) / HDL-C / LDL-C: unit not given here; settings: for LDL-C as a fraction of total cholesterol: 150 mM in drinking water, HFD; for Altherogenic Lipids (Chol-HDL) / HDL-C / LDL-C: Blood Chemistry, experiments 1 and 2; for Altherogenic Lipids (Chol-HDL) / HDL-C: 6wk; for Altherogenic Lipids (Chol-HDL) / HDL-C / LDL-C / ALT: individual mice; for ALT: 150 mM in drinking water ad libitum with HFD
Experimental: as §1

[4] = tested on: ApoE^–/– mice on an HFD; experiment: Immunofluorescent staining of the aortic root (CD68, iNOS, DAPI); set-up: Immunoflourescence Quantification #Cells/Area / Immunoflourescence Quantification #iNOS+/Area: unit not given beside the values; settings: for Immunoflourescence Quantification #CD68 / Immunoflourescence Quantification #Cells / Immunoflourescence Quantification #Cells/Area / Immunoflourescence Quantification #iNOS+ / Immunoflourescence Quantification #iNOS+/Area / Immunoflourescence Quantification CD68+/Area / Immunoflourescence Quantification CD68+iNOS+ / Immunoflourescence Quantification CD68+iNOS+/Area: aortic root, individual samples
Text: SerBut water was pH adjusted using 10 M NaOH to a final pH of 7.4. […] After 6 weeks, mice were euthanized. […] The liver was harvested and part was homogenized in tissue protein extraction reagent buffer (Invitrogen, 78510) supplemented with protease inhibitor mini tablets (Thermo Fisher Scientific, PIA32955) for Western blotting and qPCR. […] Aortic root sections were brought to room temperature and rehydrated with PBS and permeabilized with 10% dimethyl sulfoxide (DMSO). […] Sections were washed again in PBS with 0.1% Tween 20 and then PBS and mounted with ProLong Gold Antifade Mountant with DAPI (Invitrogen). Slides were imaged with a DMI8 inverted fluorescence microscope (Leica Microsystems) and analyzed with QuPath (v0.5.0).

[5] = tested on: ApoE^–/– mice on an HFD; experiment: Histological grading and scoring of livers; set-up: key to Liver Grading and Staging: Lobular inflammation (CD3+): one focus in which more than 10 periductal CD3^+ lymphocytes are found in an ×200 field; 2 to 5 instances of more than 10 periductal CD3^+ immune cells in an ×200 field; 3: Any sample exceeding this threshold; settings: for Liver Grading and Staging: Balooning Grade, Hypertrophy / Liver Grading and Staging: Lobular inflammation (CD3+) / Liver Grading and Staging: Steatosis Grade, Macro fat / NAS score (steatosis, inflammation, Ballooning): individual mice, 150 mM ad libitum for 6 weeks, HFD, liver
Experimental: as §2
Sections (8 μm thick) were stained. Digital image files were created with an Olympus VS200 Research Slide Scanner (Olympus/Evident) with a Hamamatsu ORca-Fusion camera (Hamamatsu Photonics) at ×40 magnification. Individual images were created with the OlyVIA Viewer software (Olympus/Evident). Scoring and grading was performed by a pathologist as previously described ([48]). Immunohistochemistry grading was informed by age-matched WT controls. In age-matched WT controls, CD3^+ immune cells were seen scattered without distinct aggregate formation nor associated tissue reaction. In an ×400 field, we observed up to 25 CD3^+ immune cells scattered in an even distribution, with rare events of up to 10 periductal CD3^+ immune cells but with no associated ductal or parenchymal reaction. […] Furthermore, a score of 2 corresponds to 2 to 5 instances of more than 10 periductal CD3^+ immune cells in an ×200 field. Any sample exceeding this threshold was scored a 3.

SMILES	plasma IL-1β [1]	IL-6 and IFN-γ in plasma [1]	Plasma LegendPlex IFNy [1]	Plasma LegendPlex IL-1B [1]	Plasma LegendPlex IL-6 [1]	acaca [2]	acly [2]	cpt1a [2]	fasn [2]	scd1 [2]	srebf1 [2]	srebf2 [2]	lipase in the plasma ([3]; 6 weeks)	total cholesterol or triglycerides in the plasma ([3]; 6 weeks)	LDL-C as a fraction of total cholesterol ([3]; 6 weeks)	Altherogenic Lipids (Chol-HDL) [3]	HDL-C [3]	LDL-C [3]	ALT ([3]; plasma at 6 weeks)	Immunoflourescence Quantification #CD68 [4]	also measured
CCCC(=O)[O-].[Na+] [NaBut, sodium butyrate, reference compound]	trend toward reduction	did not	43.19 and 71.91 and 156.97 and 1.54 and 133.26 and 33.33 and 25.52 and 29.92 and 11.45	1.73 and 1.26 and 132.12 and 0.34 and 3.85 and 0.46 and 0.64	1.6 and 2.29 and 7.3 and 0.92 and 0.99 and 1.54	0.754 and 1.434 and 0.565 and 0.348	1.514 and 3.195 and 3.181 and 0.636	0.594 and 0.912 and 0.54 and 0.529	1.21 and 3.882 and 0.92 and 0.454	1.215 and 2.79 and 1.889 and 0.696	0.816 and 1.204 and 0.406 and 0.79	0.731 and 1.208 and 0.837 and 0.717	significant increase	Neither SerBut nor NaBut influenced	significantly reduced	872 and 974 and 870 and 998 and 868 and 1098 and 1088 and 922 and 790 and 882	44 and 40 and 42 and 36 and 38	284 and 358 and 282 and 372 and 310 and 334 and 344 and 346 and 348 and 320	35.16 and 44.74 and 39.32 and 26.1 and 40.12 and 26.24 and 30.52 and 29.96 and 35.92 and 47.84	1074 and 944 and 743 and 1249 and 728 and 1069 and 1053 and 1330 and 954 and 511	Lipase ([3]; plasma at 6 weeks, 150 mM in drinking water with HFD): 118 and 92 and 98 and 112 and 94 and 122 and 124 and 106; CD68^+ cells and iNOS^+ cells per unit area atherosclerotic lesion ([4]; 6 weeks, compared with water- and SerBut-treated groups): increased; Immunoflourescence Quantification #Cells [4]: 1302 and 1139 and 1013 and 1531 and 949 and 1262 and 1685 and 1684 and 1364 and 682; Immunoflourescence Quantification #Cells/Area [4]: 0.004391 and 0.005279 and 0.00411 and 0.005114 and 0.004088 and 0.003979 and 0.00428 and 0.00408 and 0.005037 and 0.004831; Immunoflourescence Quantification #iNOS+ [4]: 500 and 473 and 401 and 466 and 354 and 445 and 695 and 625 and 264; Immunoflourescence Quantification #iNOS+/Area [4]: 0.001686 and 0.002192 and 0.001627 and 0.001557 and 0.001525 and 0.001403 and 0.001765 and 0.001514 and 0.00187; Immunoflourescence Quantification CD68+/Area [4]: 0.003622 and 0.004376 and 0.003015 and 0.004172 and 0.003136 and 0.00337 and 0.002675 and 0.003222 and 0.003523 and 0.003619; Immunoflourescence Quantification CD68+iNOS+ [4]: 445 and 379 and 322 and 434 and 281 and 393 and 535 and 517 and 202; Immunoflourescence Quantification CD68+iNOS+/Area [4]: 0.001501 and 0.001757 and 0.001307 and 0.00145 and 0.001211 and 0.001239 and 0.001359 and 0.001252 and 0.001431; CD3^+ immune cell infiltration into the livers, lobular inflammation ([5]; 6 weeks): Neither SerBut nor NaBut significantly reduced; hepatocellular nuclear hypertrophy ([5]; 6 weeks): suppressed; Liver Grading and Staging: Balooning Grade, Hypertrophy [5]: 2 and 1; Liver Grading and Staging: Lobular inflammation (CD3+) [5]: 1 and 2 and 3 and 0; Liver Grading and Staging: Steatosis Grade, Macro fat [5]: 1 and 2; NAS score (steatosis, inflammation, Ballooning) [5]: 4 and 5 and 6 and 3 and 2
CCCC(=O)OC[C@H](N)C(=O)O [SerBut, O-butyryl-L-serine]	trend toward reduction	reduced	1.54 and 21.65 and 44.82 and 28.44 and 36.42	1.73 and 1.26 and 21.47 and 0.83 and 1.61 and 1.04 and 1.97 and 2.89 and 4.7	1.18 and 0.95 and 0.92 and 0.99 and 2.99	0.188 and 0.284 and 0.192 and 0.406 and 0.341	0.526 and 0.622 and 0.832 and 0.324 and 0.471	0.348 and 0.381 and 0.409 and 0.745 and 0.465	0.409 and 0.404 and 0.103 and 0.193 and 0.312	1.631 and 1.826 and 1.024 and 0.978 and 0.7	0.853 and 0.562 and 0.47 and 0.606 and 0.321	0.511 and 0.812 and 0.428 and 0.961 and 0.372	no effect	Neither SerBut nor NaBut influenced	significantly reduced	948 and 1048 and 1026 and 1018 and 1032 and 880 and 848 and 784 and 1074 and 722 and 776 and 780 and 800 and 768 and 1080 and 736 and 882	38 and 52 and 46 and 44 and 48 and 54 and 56 and 42	320 and 324 and 382 and 332 and 336 and 378 and 454 and 290 and 460 and 258 and 354 and 282 and 292 and 318 and 416 and 268 and 238	30.92 and 18.78 and 25.96 and 23.5 and 26.22 and 26.76 and 26.18 and 26.36 and 22.68	253 and 777 and 160 and 609 and 328 and 484 and 543 and 320 and 469 and 759 and 789 and 546 and 570 and 595 and 155 and 500	liver expression of Acly ([2]; 6 weeks, compared with NaBut-treated mice but not water-treated groups): significantly reduced expression; liver expression of Cpt1a ([2]; 6 weeks, compared with water-treated groups, P = 0.06): strong trend toward reduction; ratio of HDL to total cholesterol ([3]; 6 weeks, compared with NaBut treatment): significantly increased; plasma ALT and AST ([3]; 6 weeks, compared with both water control and NaBut groups): significantly reduced; total numbers of CD68^+ macrophages in plaque ([4]; 6 weeks, compared to NaBut-treated groups): reduced; Immunoflourescence Quantification #Cells [4]: 361 and 838 and 219 and 933 and 390 and 980 and 918 and 425 and 532 and 1028 and 894 and 662 and 629 and 763 and 225 and 709; Immunoflourescence Quantification #Cells/Area [4]: 0.003013 and 0.004253 and 0.004189 and 0.003573 and 0.00395 and 0.004233 and 0.003714 and 0.004358 and 0.004407 and 0.003725 and 0.004412 and 0.003975 and 0.003527 and 0.00449 and 0.003521 and 0.004264; Immunoflourescence Quantification #iNOS+ [4]: 313 and 90 and 377 and 151 and 158 and 199 and 404 and 180 and 226 and 262 and 184 and 96 and 292; Immunoflourescence Quantification #iNOS+/Area [4]: 0.001588 and 0.001722 and 0.001444 and 0.001529 and 0.00162 and 0.001649 and 0.001464 and 0.0008883 and 0.001357 and 0.001469 and 0.001083 and 0.001502 and 0.001756; Immunoflourescence Quantification CD68+/Area [4]: 0.002112 and 0.003943 and 0.003061 and 0.002332 and 0.003322 and 0.00209 and 0.002197 and 0.003281 and 0.003885 and 0.00275 and 0.003894 and 0.003278 and 0.003196 and 0.003502 and 0.002425 and 0.003007; Immunoflourescence Quantification CD68+iNOS+ [4]: 308 and 87 and 302 and 146 and 132 and 181 and 347 and 153 and 200 and 252 and 157 and 71 and 253; Immunoflourescence Quantification CD68+iNOS+/Area [4]: 0.001563 and 0.001664 and 0.001157 and 0.001479 and 0.001354 and 0.001499 and 0.001257 and 0.0007551 and 0.001201 and 0.001413 and 0.000924 and 0.001111 and 0.001521; CD3^+ immune cell infiltration into the livers, lobular inflammation ([5]; 6 weeks): Neither SerBut nor NaBut significantly reduced; hepatocellular nuclear hypertrophy ([5]; 6 weeks): suppressed; liver steatosis (macrovesicular fat) score ([5]; 6 weeks): significantly suppressed; overall summed histological liver score ([5]; 6 weeks): reduced liver pathology; Liver Grading and Staging: Balooning Grade, Hypertrophy [5]: 2 and 1 and 0; Liver Grading and Staging: Lobular inflammation (CD3+) [5]: 1 and 0 and 2; Liver Grading and Staging: Steatosis Grade, Macro fat [5]: 0 and 2; NAS score (steatosis, inflammation, Ballooning) [5]: 3 and 2 and 6 and 1
